Results taken from PMC8541546, “Identification of HLA-A2-Restricted Mutant Epitopes from Neoantigens of Esophageal Squamous Cell Carcinoma” (Vaccines, 2021).

Experiments:
[1] = target: T1, peptide/HLA-A*0201 complex (Homo sapiens, UniProt P04439, D140Y/D185E/D98H/E176V/E277Q/G131W/G231S/I119V/I121R/I166T/I218V/L300P/L318F/N151K/N90K/P208A/P217A/Q86G/Q94H/R138H/R169H/T345S); test: peptide/MHC complex stabilization assay on T2A2 cells; assay type: binding; settings: T2A2 cells pulsed with 50 μg/mL peptide and 3 μg/mL β2-M 18 h, BFA 1 h; MFI at 0, 2, 4, 6 h; time of half losing MFI of 0 h
T1 construct: T2A2 cells (TAP-deficient HLA-A2 molecules overexpressing, cultured in IMDM medium); β2-M from Merck; host or cells: T2A2 cells
Experimental: For the stabilization test, T2A2 cells were pulsed with 50 μg/mL mutant peptide and 3 μg/mL β2-Microglobulin (β2-M, Merck, Kenilworth, NJ, USA) in IMDM (serum-free) medium for 18 h. After three times washing, free peptides were removed and brefeldin A (BFA, 10 μg/mL, BD Bioscience, San Diego, CA, USA) was added. BFA was removed after 1 h impeding, and the cells were incubated for additional time. Finally, T2A2 was marked with anti-human HLA-A2 PE-Cyanine7 for 30 min, then analyzed by FACS Calibur (BD Bioscience, USA). MFI of 0 h was set as 100%, and the time of half losing MFI of 0 h defined the dissociation complex 50 (DC50). DC50 was computed as follows: (MFI of 0 h-MFI of (2, 4, or 6 h))/MFI of 0 h × 100%.

[2] = tested on: peptide-pulsed T2A2 cells; test: Cytotoxicity assay of peptide-induced T cells from donor PBMCs; assay type: cell-based, human; settings: donors B–F; E/T 12.5:1, 25:1, 50:1; T2A2 loaded with 50 μg/mL peptide
Experimental: (§1) DCs involve and play an important role in initiating CD8^+ T cell response. Consequently, ten HLA-A2^+ healthy donors’ PBMCs were isolated, autologous DCs were generated, and CTLs were induced according to the procedure described previously. In brief, PBMCs were seeded at a density of 5 × 10^6 cells/well in a 6-well plate, and after 3 h, the non-adherent cells were removed and cryopreserved for future incubation with mature autologous DCs. Differentiation of the adherent cells into dendritic cells was induced by GM-CSF (100 ng/mL, #300-03, PeproTech, Rocky Hill, NJ, USA) and IL-4 (100 ng/mL; #200-04, PeproTech, USA), with replenishment every 2 days. On day 5, maturation of DCs was induced using 100 ng/mL LPS (#L4516, Sigma-Aldrich, St. Louis, MO, USA), and maturation was checked on day 8 by flow cytometry (BD FACSCelesta™) using markers for anti-human HLA-DR, anti-human CD80, and anti-human CD86. Then, mature DCs (1 × 10^5) were pulsed with each 10 μg /mL individual peptide or no peptides (control) for 2 h at 37 °C. Next, peptide-pulsed DCs were used to prime the previously cryopreserved autologous peripheral blood lymphocytes (PBLs) at a DC/PBL ratio of 1:10 using complete RPMI-1640 media supplemented with 100 IU/mL rhIL-2 (#200-02, PeproTech, USA) and 10 ng/mL rhIL-7 (#200-07, PeproTech, USA). Half of the feeding medium was replenished every 2 days. After 7 days, PBLs were restimulated with freshly pulsed autologous DCs every 7 days.
The cytotoxicity of peptide-specific T cells stimulated by mutant peptides was tested by using Cell Trace Far Red (Thermo Scientific, USA). Transfected cells were suspended in PBS (1 × 10^6 cells/mL) and labelled with Cell Trace Far Red as follows: Control target cells and test target cells were marked by 50 μM and 1 mM Cell Trace Far Red, respectively, at 37 °C for 20 min, protected from light. After incubation, target cells were washed with complete media at 37 °C for 5 min. […] Subsequently, test target cells were mixed with control target cells in a tube, washed once, and analyzed by flow cytometry. Specific lysis (%) = (numbers of control target cells—numbers of test target cells)/numbers of control target cells × 100% [28, 29], where, for tumor cells, the control target cells refer to KYSE140-WT cells marked with 50 μM Cell Trace Far Red, and the test target cell refers to KYSE140-WT or KYSE140-MUT cells marked with 1 mM Cell Trace Far Red, respectively (peptide-specific T cells generated from donors G–K’s PBMCs in vitro or generated from spleen lymphocytes of HLA-A2.1/K^b Tg mice in vivo). Additionally, for T2A2 target cells, T2A2 cells unpulsed and marked with 50 μM Cell Trace Far Red were used as the control target cells, while T2A2 cells loaded with MUT peptides or the corresponding WT peptides (50 μg/mL) or T2A2 cells only were marked with 1 mM Cell Trace Far Red and were used as test target cells (peptide-specific T cells stimulated from donors B–F’s PBMCs).

[3] = tested on: peptide-pulsed T2A2 cells; test: IFN-γ intracellular staining of peptide-induced T cells from donor PBMCs; assay type: cell-based, human; settings: PBMCs of HLA-A2+ donors B–F, DCs pulsed with 10 μg/mL peptide, three rounds
Experimental: as §1
When target cells were peptide-pulsed T2A2 cells (MUT peptide or its corresponding WT peptide), peptide-specific T cells (from HLA-A2^+ healthy donors B–F) stimulated by MUT peptides were co-cultured with these cells in the presence of BFA for 5 h. Then T cells were marked by anti-human CD3 and anti-human CD8α monoclonal antibody. Thirty minutes later, cells were fixed by fixation buffer (Thermo Scientific, Waltham, MA, USA) for thirty minutes and washed by permeabilization buffer (Thermo Scientific, USA). Permeabilized T cells were marked by anti-human IFN-γ monoclonal antibody.

[4] = target: T2, HLA-A*0201 molecule (Homo sapiens, UniProt P04439, D140Y/D185E/D98H/E176V/E277Q/G131W/G231S/I119V/I121R/I166T/I218V/L300P/L318F/N151K/N90K/P208A/P217A/Q86G/Q94H/R138H/R169H/T345S); test: T2A2 cell-binding assay; settings: T2A2 cells; FI = (MFI of peptide - MFI of control without peptide)/MFI of control without peptide; anti-HLA-A2 BB7.2, flow cytometry; FI > 1 = high binding affinity
T2 construct: T2A2 cells (TAP-deficient HLA-A2 molecules overexpressing, cultured in IMDM medium); host or cells: T2A2 cells
Experimental: The binding affinity of neoepitope to the MHC molecule and the stable neoepitope/MHC complex are critical for inducing T cell immune response, so we first performed a T2A2 cell-binding assay and stabilization assay. The T2A2 cell-binding assay was measured as in our previous study. The binding affinity was computed as follows: fluorescence index (FI) = (mean fluorescence intensity (MFI) of peptide group-MFI of the dissolved buffer without peptide group)/MFI of the dissolved buffer without peptide group.

DC50 (dissociation complex 50) [1] [h]	FI (fluorescence index) [4]	Sequence	lysis cytotoxicity of MUT peptide-induced T cells on T2A2 cells [2]	IFN-γ release of MUT peptide-induced T cells, MUT versus WT peptide-loaded T2A2 cells [3]
	0.42	RMHDVTTPL [NOTCH1-G1995V]		
	0.79	ILWRQDTDL [NFE2L2-I28T]		
<2	1.67	YLPDHHEEL [SYNE1-S7628Y]		
>6	1.27	FLIQTEQKL [SYNE1-V7402I]	strong cytotoxicity activity	cannot effectively distinguish T2A2 cells loaded with WT or MUT peptides
	0.43	TLTATVNIV [PCDH15-S628L]		
	0.08	KLLSLLEVL [SYNE1-A65S]		
	0.12	ALNKMFFQL [TP53-C135F]		
	0.49	YMCNSSCMV [TP53-G244V]		
<4	1.81	TILEELNVV [SYNE1-N4342I]		
	0.16	LLARNSFEV [TP53-G266A]		
	0.13	GMLSPVDFL [NOTCH1-S2202F]		
>4	1.26	ALPQHLIRV [TP53-P190L]	strong cytotoxicity activity	cannot effectively distinguish T2A2 cells loaded with WT or MUT peptides
	0.53	LLGRNSFEL [TP53-V272L]		

Second part, the sequence before the results:

Sequence	DC50 (dissociation complex 50) [1] [h]	FI (fluorescence index) [4]	lysis cytotoxicity of MUT peptide-induced T cells on T2A2 cells [2]	IFN-γ release of MUT peptide-induced T cells, MUT versus WT peptide-loaded T2A2 cells [3]
ILQDGFLYV [ABCA13-E1359Q]	>6	1.56	strong cytotoxicity activity	cannot effectively distinguish T2A2 cells loaded with WT or MUT peptides
ALDMCVKFL [LRP1B-P3707L]		0.37		
GLPNDDLYI [DNAH5-S3587Y]		0.68		
FLTATRQEI [DNAH5-M4495T]		0.21		
FMNELMDII [DNAH5-D4110N]		0.38		
NLHSINDFL [ABCA13-D1303H]		0.24		
ILIGETIKI [COX-2 321–329, reference compound]	>6	2.12		
SMGDALDSI [MUC16-A4579D]	<2	1.35		
CLRDYQPFL [LRP2-D1744Y]		0.20		
RMQRVLSHV [DNAH5-L4406H]		0.30		
VLDDSETTI [MUC16-A9832D]	>6	3.56	strong cytotoxicity activity	cannot effectively distinguish T2A2 cells loaded with WT or MUT peptides
QLQAQLQGV [KMT2D-R4198Q]	<2	1.12		
ILGEEAPRL [KMT2D-F4722L]		0.29		
LMSRIPHDV [MUC16-Q5024H]		0.14		
GLFQCGTGL [LRP1B-R3362L]		0.09		
SIPSFPLPV [MUC16-S5361F]	<2	2.25		
TMSERSTLL [MUC17-T3809M]		0.12		
YLLTPNGRV [LRP1B-C2479Y]		0.39		
TMPVVSSEV [MUC17-A2414V]	<4	1.54		
VISDYKYKV [NEB-D3282V]		0.09		
